Data taken from the supplement of paper PMC10307832.

How the values were obtained:
Assay in all cases: relative viability (nuclei count vs DMSO), 5 days (fraction); higher = more cells survive
Motesanib + Bortezomib = compound: CC1(C)CNc2cc(NC(=O)c3cccnc3NCc3ccncc3)ccc21 [Motesanib] + CC(C)C[C@H](NC(=O)[C@H](Cc1ccccc1)NC(=O)c1cnccn1)B(O)O [Bortezomib] (partner 0.002 µM)
How it was run: (§1)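 One day after seeding in 1536-well plates, lung cancer cell lines were dosed by pin tool. Dosing was either single-drug or a fixed anchor-drug dose plus five library-drug doses (not always all listed) in √10 steps. After 5 days, nuclei were stained in one fix-and-stain step and counted on 4× images, and relative viability is the nuclei count of treated wells over that of vehicle wells, given as the median of duplicate plates.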

Motesanib + Pictilisib = compound: CC1(C)CNc2cc(NC(=O)c3cccnc3NCc3ccncc3)ccc21 [Motesanib] + CS(=O)(=O)N1CCN(Cc2cc3nc(-c4cccc5[nH]ncc45)nc(N4CCOCC4)c3s2)CC1 [Pictilisib] (partner 1 µM)
How it was run: as §1

Motesanib + Olaparib = compound: CC1(C)CNc2cc(NC(=O)c3cccnc3NCc3ccncc3)ccc21 [Motesanib] + O=C(c1cc(Cc2n[nH]c(=O)c3ccccc23)ccc1F)N1CCN(C(=O)C2CC2)CC1 [Olaparib] (partner 8 µM)
How it was run: as §1

[1] = compound: C[C@@]1(C(=O)Nc2ccc(F)nc2)CCCN1c1nc(Nc2cc(C3CC3)n[nH]2)c2cccn2n1 + Cc1nc(Nc2ncc(C(=O)Nc3c(C)cccc3Cl)s2)cc(N2CCN(CCO)CC2)n1 [Dasatinib] (partner 0.075 µM)
How it was run: as §1

Cell Line	relative viability (Motesanib + Bortezomib; first compound 0.01 µM)	relative viability (Motesanib + Bortezomib; first compound 0.03162 µM)	relative viability (Motesanib + Bortezomib; first compound 0.1 µM)	relative viability (Motesanib + Bortezomib; first compound 0.3162 µM)	relative viability (Motesanib + Bortezomib; first compound 1 µM)	relative viability (Motesanib + Pictilisib; first compound 0.01 µM)	relative viability (Motesanib + Pictilisib; first compound 0.03162 µM)	relative viability (Motesanib + Pictilisib; first compound 0.1 µM)	relative viability (Motesanib + Pictilisib; first compound 0.3162 µM)	relative viability (Motesanib + Pictilisib; first compound 1 µM)	relative viability (Motesanib + Olaparib; first compound 0.01 µM)	relative viability (Motesanib + Olaparib; first compound 0.03162 µM)	relative viability (Motesanib + Olaparib; first compound 0.1 µM)	relative viability (Motesanib + Olaparib; first compound 0.3162 µM)	relative viability (Motesanib + Olaparib; first compound 1 µM)	relative viability ([1]; first compound 0.04 µM)	relative viability ([1]; first compound 0.1265 µM)	relative viability ([1]; first compound 0.4 µM)	relative viability ([1]; first compound 1.265 µM)
NCI-H1651	0.914	0.883	0.932	0.873	0.929	0.607	0.538	0.516	0.562	0.51	0.176	0.192	0.213	0.202	0.201	0.309	0.33	0.185	0.231
NCI-H1666	0.845	0.766	0.816	0.77	0.862	0.466	0.5	0.416	0.463	0.49	0.743	0.761	0.776	0.851	0.705	0.709	0.613	0.486	0.412
NCI-H1734	1	0.929	1.01	0.918	1.09	0.446	0.496	0.461	0.479	0.48	0.54	0.686	0.72	0.636	0.565	0.345	0.296	0.29	0.185
NCI-H1755	0.927	0.957	1.06	0.988	1.02	0.395	0.423	0.442	0.454	0.402	0.795	0.877	0.774	0.923	0.9	0.29	0.262	0.241	0.171
NCI-H1792	0.931	0.737	0.976	1.04	1.03	0.296	0.231	0.294	0.297	0.309	0.544	0.444	0.491	0.444	0.486	0.283	1.06	0.211	0.227
NCI-H1915	0.959	0.929	0.936	0.98	0.989	0.933	0.984	0.657	0.994	1.06	0.246	0.262	0.258	0.277	0.286	0.302	0.3	0.288	0.268
NCI-H1975	0.378	0.406	0.326	0.391	0.369	0.312	0.282	0.313	0.352	0.31	0.756	0.667	0.761	0.682	0.781	0.263	0.306	0.181	0.154
NCI-H1993	1.09	1.06	1.08	1.28	1.06	0.676	0.917	0.899	0.767	0.805	1.03	0.94	1.03	1.06	1.08	0.523	0.454	0.356	0.512
